Reference: ChEMBL document CHEMBL4368907 (J Med Chem, 2019)
Active and inactive are the calls of the source. The calls are words filed in the database; no cut-off is given here. Numbered stars: 1 amine (or outer) side, 2 acyl side, 3 side chain; on linkers, the order of the positions; unused ones are H or OH. Square brackets hold non-standard residues; d marks the D form. Side chains are listed from the residue outwards. Peptide text beside a SMILES is read from it. * marks the point of attachment. Phe(4-CH2SO3H) = N[C@@H](Cc1ccc(CS(=O)(=O)O)cc1)C(=O)O; sY = N[C@@H](Cc1ccc(OS(=O)(=O)O)cc1)C(=O)O; C18 diacid = O=C(O)CCCCCCCCCCCCCCCCC(=O)*; γGlu = O=C(O)[C@H](CCC(=O)[*:2])N[*:1]; NMeF = CN[C@@H](Cc1ccccc1)C(=O)O; NMeD = CN[C@@H](CC(=O)O)C(=O)O; dNMeD = CN[C@H](CC(=O)O)C(=O)O; Nle = CCCC[C@H](N)C(=O)O; X1 = O=C(Cc1ccc(O)cc1)*; AEEA = NCCOCCOCC(=O)O

Legend:
Sus scrofa [1] = assay: Anti-obesity activity in lean Landrace Yorkshire Duroc pig assessed as food intake at 30 nmol/kg, sc measured up to 24 hrs post dose (reference value: 1.8 to 2.1 kg); assay type: functional
Sus scrofa [2] = assay: Anti-obesity activity in lean Landrace Yorkshire Duroc pig assessed as food intake at 30 nmol/kg, sc measured at 24 to 48 hrs post dose (reference value: 1.8 to 2.1 kg); assay type: functional
Sus scrofa [3] = assay: Anti-obesity activity in lean Landrace Yorkshire Duroc pig assessed as food intake at 30 nmol/kg, sc measured at 48 to 72 hrs post dose (reference value: 1.8 to 2.1 kg); assay type: functional
Sus scrofa [4] = assay: Anti-obesity activity in lean Landrace Yorkshire Duroc pig assessed as food intake at 30 nmol/kg, sc measured at 72 to 96 hrs post dose (reference value: 1.8 to 2.1 kg); assay type: functional
[5] = Drug level in Ellegaard Gottingen minipig plasma treated with C18d-gammaGlu-(OEG)2-Asp-Phe(4sm)-Nle-Gly-Trp-Nle-DMeAspMePhe-NH2 at 5 nmol/kg, iv administered as single dose by LC-MS/MS analysis; assay type: ADME, organism-based, Sus scrofa; conditions: pig, in vivo
[6] = target: T1, Cholecystokinin receptor type A (Homo sapiens, UniProt P32238); assay: (§1) Displacement of [125I]-CCK-8 from human CCK1R expressed in human 1321N1 cell membranes after 2 hrs by SPA assay
T1 sequence (P32238 whole entry): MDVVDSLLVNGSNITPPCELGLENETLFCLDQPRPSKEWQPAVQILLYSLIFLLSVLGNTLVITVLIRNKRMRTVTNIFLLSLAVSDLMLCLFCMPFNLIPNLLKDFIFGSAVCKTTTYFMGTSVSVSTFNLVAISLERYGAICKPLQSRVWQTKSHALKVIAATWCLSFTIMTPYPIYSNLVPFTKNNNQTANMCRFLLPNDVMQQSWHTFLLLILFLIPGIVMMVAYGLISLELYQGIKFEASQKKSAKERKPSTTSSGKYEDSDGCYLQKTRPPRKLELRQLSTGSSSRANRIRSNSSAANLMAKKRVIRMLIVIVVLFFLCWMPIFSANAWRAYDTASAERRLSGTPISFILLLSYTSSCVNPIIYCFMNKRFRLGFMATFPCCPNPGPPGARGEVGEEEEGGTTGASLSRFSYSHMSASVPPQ

[7] = target: T2, Gastrin/cholecystokinin type B receptor (Homo sapiens, UniProt P32239); assay: (§2) Displacement of [125I]-CCK-8 from human CCK2R expressed in human 1321N1 cell membranes after 2 hrs by SPA assay
T2 sequence (P32239 whole entry): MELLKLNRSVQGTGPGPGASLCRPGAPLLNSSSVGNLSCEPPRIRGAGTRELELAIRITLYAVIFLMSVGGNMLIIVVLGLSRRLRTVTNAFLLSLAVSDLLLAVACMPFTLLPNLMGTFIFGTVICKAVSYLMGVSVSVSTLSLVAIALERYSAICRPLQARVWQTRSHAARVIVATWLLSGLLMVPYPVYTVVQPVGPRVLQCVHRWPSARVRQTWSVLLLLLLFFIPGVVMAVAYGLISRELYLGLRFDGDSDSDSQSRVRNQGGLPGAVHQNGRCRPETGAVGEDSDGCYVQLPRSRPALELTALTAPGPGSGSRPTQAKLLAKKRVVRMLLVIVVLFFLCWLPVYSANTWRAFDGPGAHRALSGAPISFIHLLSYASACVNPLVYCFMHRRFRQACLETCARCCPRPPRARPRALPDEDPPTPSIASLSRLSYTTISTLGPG

[8] = target: T1, Cholecystokinin receptor type A; assay: (§3) Agonist activity at human CCK1R expressed in human 1321N1 cells assessed as IP1 accumulation after 1 hr by HTRF assay; assay type: functional, cell-based
[9] = target: T2, Gastrin/cholecystokinin type B receptor; assay: (§4) Agonist activity at human CCK2R expressed in human 1321N1 cells assessed as IP1 accumulation after 1 hr by HTRF assay; assay type: functional, cell-based
[10] = Terminal half life in Ellegaard Gottingen minipig at 5 nmol/kg, iv by LC-MS/MS analysis; assay type: ADME, organism-based, Sus scrofa; conditions: pig, in vivo, read-out: beta t1/2 (converted)
[11] = Plasma concentration in lean Landrace Yorkshire Duroc pig at 30 nmol/kg, sc measured after 96 hrs post dose; assay type: ADME, organism-based, Sus scrofa
[12] = Toxicity in lean Landrace Yorkshire Duroc pig at 30 nmol/kg, sc measured up to 96 hrs post dose; assay type: organism-based, Sus scrofa; conditions: in vivo
[13] = target: T3, Cholecystokinin receptor type A (Homo sapiens) (UniProt P32238); assay: as §1
T3 sequence (whole entry): T1 sequence (P32238 whole entry)

[14] = target: T4, Gastrin/cholecystokinin type B receptor (Homo sapiens) (UniProt P32239); assay: as §2
T4 sequence (whole entry): T2 sequence (P32239 whole entry)

[15] = target: T3, Cholecystokinin receptor type A (Homo sapiens); assay: as §3; assay type: functional, cell-based
[16] = target: T4, Gastrin/cholecystokinin type B receptor (Homo sapiens); assay: as §4; assay type: functional, cell-based

SMILES	concentration at 96 h [11] [nM]	pIC50 [13]	pIC50 [14]	pEC50 [15]	pEC50 [16]	Activity (Sus scrofa [1]) [kg]	Activity (Sus scrofa [2]) [kg]	Activity (Sus scrofa [3]) [kg]	Activity (Sus scrofa [4]) [kg]	Activity [12]	other results
CCCC[C@H](NC(=O)[C@H](Cc1c[nH]c2ccccc12)NC(=O)CNC(=O)[C@H](CC(C)C)NC(=O)[C@H](Cc1ccc(O)cc1)NC(=O)[C@H](CC(=O)O)NC(=O)COCCOCCNC(=O)COCCOCCNC(=O)CC[C@H](NC(=O)CCCCCCCCCCCCCCCCC(=O)O)C(=O)O)C(=O)N(C)[C@@H](CC(=O)O)C(=O)N(C)[C@@H](Cc1ccccc1)C(N)=O [listing 1 of 2 here]	–	–	–	–	–	2.3	2.2	2.6	2.3	–	–
CCCC[C@H](NC(=O)[C@H](Cc1c[nH]c2ccccc12)NC(=O)CNC(=O)[C@H](CCCCNC(=O)COCCOCCNC(=O)COCCOCCNC(=O)CC[C@H](NC(=O)CCCCCCCCCCCCCCCCC(=O)O)C(=O)O)NC(=O)Cc1ccc(O)cc1)C(=O)N(C)[C@@H](CC(=O)O)C(=O)N(C)[C@@H](Cc1ccccc1)C(N)=O (X1-K([AEEA-AEEA-γGlu-C18 diacid])GW[Nle][NMeD][NMeF]-NH2) [listing 1 of 2 here]	–	–	–	–	–	2.1	2.2	2.1	2.4	–	–
CCCC[C@H](NC(=O)[C@H](Cc1ccc(CS(=O)(=O)O)cc1)NC(=O)[C@H](CC(=O)O)NC(=O)COCCOCCNC(=O)COCCOCCNC(=O)CC[C@H](NC(=O)CCCCCCCCCCCCCCCCC(=O)O)C(=O)O)C(=O)NCC(=O)O ({C18 diacid-γGlu-AEEA-AEEA}-D[Phe(4-CH2SO3H)][Nle]G-OH)	–	–	–	–	–	–	–	–	–	–	Drug uptake [5]: Active
O=C(O)CCCCCCCCCCCCCCCCC(=O)N[C@@H](CCC(=O)NCCOCCOCC(=O)NCCOCCOCC(=O)N[C@@H](CC(=O)O)C(=O)N[C@@H](Cc1ccc(CS(=O)(=O)O)cc1)C(=O)O)C(=O)O	–	–	–	–	–	–	–	–	–	–	Drug uptake [5]: Active
CCCC[C@H](NC(=O)[C@H](Cc1c[nH]c2ccccc12)NC(=O)CNC(=O)[C@H](CCCCNC(=O)COCCOCCNC(=O)COCCOCCNC(=O)CC[C@H](NC(=O)CCCCCCCCCCCCCCCCC(=O)O)C(=O)O)NC(=O)Cc1ccc(O)cc1)C(=O)N(C)[C@@H](CC(=O)O)C(=O)N(C)[C@@H](Cc1ccccc1)C(N)=O (X1-K([AEEA-AEEA-γGlu-C18 diacid])GW[Nle][NMeD][NMeF]-NH2) [listing 2 of 2 here]	< 0.9	–	–	–	–	–	–	–	–	Non-Toxic	pIC50 [6]: 9.28; pIC50 [7]: 5.43; pEC50 [8]: 9.8; pEC50 [9]: < 6; half-life [10]: 7.1 h
CCCC[C@H](NC(=O)[C@H](Cc1ccc(CS(=O)(=O)O)cc1)NC(=O)[C@H](CC(=O)O)NC(=O)COCCOCCNC(=O)[C@H](CCCCN)NC(=O)COCCOCCNC(=O)COCCOCCNC(=O)CC[C@H](NC(=O)CCCCCCCCCCCCCCCCC(=O)O)C(=O)O)C(=O)NCC(=O)N[C@@H](Cc1c[nH]c2ccccc12)C(=O)N[C@@H](CCCC)C(=O)N(C)[C@H](CC(=O)O)C(=O)N(C)[C@@H](Cc1ccccc1)C(N)=O ({C18 diacid-γGlu-AEEA-AEEA}-K[AEEA]D[Phe(4-CH2SO3H)][Nle]GW[Nle][dNMeD][NMeF]-NH2)	8.8	–	–	–	–	0.9	1.2	1.6	1.8	Non-Toxic	IC50 [6]: 0.0631 nM; IC50 [7]: 129 nM; EC50 [8]: 0.214 nM
CCCC[C@H](NC(=O)[C@H](Cc1ccc(CS(=O)(=O)O)cc1)NC(=O)[C@H](CC(=O)O)NC(=O)COCCOCCNC(=O)COCCOCCNC(=O)CC[C@H](NC(=O)CCCCCCCCCCCCCCCCC(=O)O)C(=O)O)C(=O)NCC(=O)N[C@@H](Cc1c[nH]c2ccccc12)C(=O)N[C@@H](CCCC)C(=O)N(C)[C@@H](CC(=O)O)C(=O)N(C)[C@@H](Cc1ccccc1)C(N)=O ({C18 diacid-γGlu-AEEA-AEEA}-D[Phe(4-CH2SO3H)][Nle]GW[Nle][NMeD][NMeF]-NH2)	93.9	–	–	–	–	1.9	2	2.3	2.2	Non-Toxic	IC50 [6]: 0.316 nM; IC50 [7]: 8710 nM; EC50 [8]: 0.107 nM; EC50 [9]: > 1000 nM
CCCC[C@H](NC(=O)[C@H](Cc1ccc(CS(=O)(=O)O)cc1)NC(=O)[C@H](CC(=O)O)NC(=O)COCCOCCNC(=O)COCCOCCNC(=O)CC[C@H](NC(=O)CCCCCCCCCCCCCCCCC(=O)O)C(=O)O)C(=O)NCC(=O)N[C@@H](Cc1c[nH]c2ccccc12)C(=O)N[C@@H](CCCC)C(=O)N(C)[C@H](CC(=O)O)C(=O)N(C)[C@@H](Cc1ccccc1)C(=O)O	–	inactive	inactive	inactive	inactive	–	–	–	–	–	–

More lines, main results first:

concentration at 96 h [11] [nM]	pIC50 [13]	pIC50 [14]	pEC50 [15]	pEC50 [16]	SMILES	Activity (Sus scrofa [1]) [kg]	Activity (Sus scrofa [2]) [kg]	Activity (Sus scrofa [3]) [kg]	Activity (Sus scrofa [4]) [kg]	Activity [12]	other results
8.5	–	–	–	–	CCCC[C@H](NC(=O)[C@H](Cc1c[nH]c2ccccc12)NC(=O)CNC(=O)[C@H](CC(C)C)NC(=O)[C@H](Cc1ccc(O)cc1)NC(=O)[C@H](CC(=O)O)NC(=O)COCCOCCNC(=O)COCCOCCNC(=O)CC[C@H](NC(=O)CCCCCCCCCCCCCCCCC(=O)O)C(=O)O)C(=O)N(C)[C@@H](CC(=O)O)C(=O)N(C)[C@@H](Cc1ccccc1)C(N)=O [listing 2 of 2 here]	–	–	–	–	Non-Toxic	pIC50 [6]: 8.99; pIC50 [7]: 5.31; pEC50 [8]: 9.81; pEC50 [9]: < 6; half-life [10]: 45 h
–	inactive	inactive	inactive	inactive	CCCC[C@H](NC(=O)[C@H](Cc1ccc(OS(=O)(=O)O)cc1)NC(=O)[C@H](CC(=O)O)NC(=O)COCCOCCNC(=O)COCCOCCNC(=O)CC[C@H](NC(=O)CCCCCCCCCCCCCCCCC(=O)O)C(=O)O)C(=O)NCC(=O)N[C@@H](Cc1c[nH]c2ccccc12)C(=O)N[C@@H](CCCCN)C(=O)N[C@@H](CC(=O)O)C(=O)N[C@@H](Cc1ccccc1)C(N)=O ({C18 diacid-γGlu-AEEA-AEEA}-D[sY][Nle]GWKDF-NH2)	–	–	–	–	–	–
91.2	–	–	–	–	CC(C)C[C@H](NC(=O)[C@H](Cc1ccc(OS(=O)(=O)O)cc1)NC(=O)[C@H](CC(=O)O)NC(=O)COCCOCCNC(=O)COCCOCCNC(=O)CC[C@H](NC(=O)CCCCCCCCCCCCCCCCC(=O)O)C(=O)O)C(=O)NCC(=O)N[C@@H](Cc1c[nH]c2ccccc12)C(=O)N[C@@H](CCC(N)=O)C(=O)N(C)[C@H](CC(=O)O)C(=O)N(C)[C@@H](Cc1ccccc1)C(N)=O ({C18 diacid-γGlu-AEEA-AEEA}-D[sY]LGWQ[dNMeD][NMeF]-NH2)	1.4	1.3	1.8	1.8	Non-Toxic	EC50 [8]: 0.135 nM
–	Active	Active	Active	Active	CCCC[C@H](NC(=O)[C@H](Cc1ccc(OS(=O)(=O)O)cc1)NC(=O)[C@H](CC(=O)O)NC(=O)COCCOCCNC(=O)COCCOCCNC(=O)CC[C@H](NC(=O)CCCCCCCCCCCCCCCCC(=O)O)C(=O)O)C(=O)NCC(=O)N[C@@H](Cc1c[nH]c2ccccc12)C(=O)N[C@@H](CC(C)C)C(=O)N[C@@H](CC(=O)O)C(=O)N[C@@H](Cc1ccccc1)C(N)=O	–	–	–	–	–	–
–	inactive	inactive	inactive	inactive	CCCC[C@H](NC(=O)[C@H](Cc1ccc(OS(=O)(=O)O)cc1)NC(=O)[C@H](CC(=O)O)NC(=O)COCCOCCNC(=O)COCCOCCNC(=O)CC[C@H](NC(=O)CCCCCCCCCCCCCCCCC(=O)O)C(=O)O)C(=O)NCC(=O)N[C@@H](Cc1c[nH]c2ccccc12)C(=O)N[C@@H](C)C(=O)N[C@@H](CC(=O)O)C(=O)N[C@@H](Cc1ccccc1)C(N)=O ({C18 diacid-γGlu-AEEA-AEEA}-D[sY][Nle]GWADF-NH2)	–	–	–	–	–	–
